#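 Five compound concentrations were applied to cells in 96-well plates for 48 hours; endpoints were derived by simple linear interpolation of the resulting dose-response curve. Definition used: TGI = concentration required for complete inhibition of growth.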
# Assays:
# Experiment in all cases: NCI tumour cell line growth inhibition, 48 h
# A498 renal = system: A498 renal
# OVCAR-3 ovarian = system: OVCAR-3 ovarian
# COLO 205 colon = system: COLO 205 colon
# SF-295 CNS = system: SF-295 CNS
# MALME-3M melanoma = system: MALME-3M melanoma
# MCF7 breast = system: MCF7 breast
# BT-549 breast = system: BT-549 breast
# SK-MEL-5 melanoma = system: SK-MEL-5 melanoma
# SK-MEL-2 melanoma = system: SK-MEL-2 melanoma
# MOLT-4 leukemia = system: MOLT-4 leukemia
# NCI-H460 lung = system: NCI-H460 lung
# SW-620 colon = system: SW-620 colon
# PC-3 prostate = system: PC-3 prostate
# UO-31 renal = system: UO-31 renal
# A549 NSCLC = system: A549 NSCLC
# SNB-19 CNS = system: SNB-19 CNS
# NCI/ADR-RES ovarian = system: NCI/ADR-RES ovarian
# RXF 393 renal = system: RXF 393 renal
# RPMI-8226 leukemia = system: RPMI-8226 leukemia
# SF-268 CNS = system: SF-268 CNS
Structure (SMILES),TGI (A498 renal),TGI (OVCAR-3 ovarian),TGI (COLO 205 colon),TGI (SF-295 CNS),TGI (MALME-3M melanoma),TGI (MCF7 breast),TGI (BT-549 breast),TGI (SK-MEL-5 melanoma),TGI (SK-MEL-2 melanoma),TGI (MOLT-4 leukemia),TGI (NCI-H460 lung),TGI (SW-620 colon),TGI (PC-3 prostate),TGI (UO-31 renal),TGI (A549 NSCLC),TGI (SNB-19 CNS),TGI (NCI/ADR-RES ovarian),TGI (RXF 393 renal),TGI (RPMI-8226 leukemia),TGI (SF-268 CNS)
COc1ccc([C@]23CCN(S(=O)(=O)c4ccc(C)cc4)[C@H]2[C@H](CO)C2(CC3)OCC(C)(C)CO2)cc1OC,> 100 µM,> 100 µM,> 100 µM,> 100 µM,> 100 µM,> 100 µM,> 100 µM,> 100 µM,> 100 µM,> 100 µM,> 100 µM,> 100 µM,> 100 µM,> 100 µM,> 100 µM,> 100 µM,> 100 µM,> 100 µM,> 100 µM,
Cn1c(=O)cc(NCCc2ccccc2)[nH]c1=O,> 100 µM,36.6 µM,> 100 µM,97.6 µM,> 100 µM,> 100 µM,> 100 µM,> 100 µM,> 100 µM,> 100 µM,> 100 µM,> 100 µM,> 100 µM,> 100 µM,> 100 µM,> 100 µM,98 µM,> 100 µM,> 100 µM,> 100 µM
CCCC(=O)OCC1OC(n2cc(F)c(=O)[nH]c2=O)C(F)C1OC(=O)CCC (stereo unspecified),> 100 µM,> 100 µM,> 100 µM,> 100 µM,> 100 µM,> 100 µM,> 100 µM,> 100 µM,> 100 µM,> 100 µM,> 100 µM,> 100 µM,> 100 µM,> 100 µM,> 100 µM,,> 100 µM,> 100 µM,> 100 µM,> 100 µM
CCOC(=O)/C(C[C@H]1OC(C)(C)O[C@@H]1[C@H]1COC(C)(C)O1)=N/O,> 100 µM,> 100 µM,> 100 µM,> 100 µM,> 100 µM,> 100 µM,> 100 µM,> 100 µM,> 100 µM,> 100 µM,> 100 µM,> 100 µM,> 100 µM,> 100 µM,> 100 µM,> 100 µM,> 100 µM,> 100 µM,> 100 µM,> 100 µM
CC1(C)CCC[C@@]2(C)C1C(=O)[C@@H]1O[C@]1(C)[C@@H]2CO (stereo partly specified),> 100 µM,50.8 µM,85.1 µM,> 100 µM,> 100 µM,> 100 µM,43.6 µM,> 100 µM,66.5 µM,> 100 µM,> 100 µM,> 100 µM,> 100 µM,> 100 µM,> 100 µM,> 100 µM,> 100 µM,75.6 µM,53.4 µM,> 100 µM
Cn1c2ccccc2n2c3ccccc3c(=O)c(C#N)c12,> 75.8 µM,> 100 µM,> 100 µM,55.1 µM,49.9 µM,> 100 µM,> 100 µM,28.4 µM,> 100 µM,17.8 µM,> 61.1 µM,> 100 µM,> 100 µM,> 71.2 µM,> 100 µM,> 100 µM,> 60.1 µM,> 100 µM,> 26.7 µM,> 100 µM
O=C(O)C1(Cc2ccc3c(c2)CCC3)Cc2ccccc2C1=O (stereo unspecified),> 100 µM,> 100 µM,> 100 µM,> 100 µM,> 100 µM,> 100 µM,> 100 µM,> 100 µM,> 100 µM,> 100 µM,> 100 µM,> 100 µM,> 100 µM,> 100 µM,> 100 µM,> 100 µM,> 100 µM,> 100 µM,92.2 µM,> 100 µM
COc1cc2c(c(OC)c1OC)C(=O)[C@H](Br)[C@H]2NC(=O)NCCCl,> 100 µM,> 100 µM,> 100 µM,> 100 µM,> 100 µM,> 100 µM,> 100 µM,> 100 µM,> 100 µM,> 100 µM,> 100 µM,> 100 µM,> 100 µM,> 100 µM,> 100 µM,> 100 µM,> 100 µM,> 100 µM,> 100 µM,> 100 µM
O=S(=O)(O)c1cc(N=Nc2cc(S(=O)(=O)O)c3cccnc3c2O)ccc1/C=C/c1ccc(N=Nc2cc(S(=O)(=O)O)c3cccnc3c2O)cc1S(=O)(=O)O,> 100 µM,> 100 µM,> 100 µM,> 100 µM,> 100 µM,> 100 µM,> 100 µM,> 100 µM,> 100 µM,48.3 µM,> 100 µM,> 100 µM,> 100 µM,> 100 µM,> 100 µM,> 100 µM,> 100 µM,> 31.6 µM,> 100 µM,> 100 µM
CNC(=O)CNC(=O)C(Cc1ccc(NC(=O)CCCCC(C)=O)cc1)NC(=O)C(CCC(=O)OCc1ccccc1)NC(=O)OC(C)(C)C (stereo unspecified),> 100 µM,> 100 µM,> 100 µM,> 100 µM,> 100 µM,> 100 µM,> 100 µM,> 100 µM,,> 100 µM,> 100 µM,> 100 µM,> 100 µM,> 100 µM,> 100 µM,> 100 µM,> 100 µM,> 100 µM,> 100 µM,> 100 µM
COc1cccc(NC(=O)CC(=O)N2N=C(C)C(N=Nc3ccc(S(=O)(=O)CCOS(=O)(=O)O)cc3)C2=O)c1 (stereo unspecified),22.7 µM,17 µM,31.5 µM,30.6 µM,23.2 µM,5.71 µM,14.5 µM,13.3 µM,6.23 µM,> 100 µM,17.9 µM,12.7 µM,14.5 µM,24.5 µM,41.1 µM,33.9 µM,> 100 µM,15.9 µM,21 µM,
